# Data as given in ChEMBL document CHEMBL3817769, “Expanding the chemical space of hydrophobic pharmacophores: the role of hydrophobic substructures in the development of novel transcription modulators” (2016).
# Tested on: HL-60
# Assay: Induction of differentiation in human HL60 cells after 20 mins by NBT reduction assay relative to retinoic acid
# Assay type: functional
# Parameters: concentration or dose not given beside the values
row,Compound,Activity
1,C[Si](C)(C)c1cc(C(=O)/C=C/c2ccc(C(=O)O)cc2)cc([Si](C)(C)C)c1,860%
2,CC(C)(C)c1cc(C(=O)/C=C/c2ccc(C(=O)O)cc2)cc(C(C)(C)C)c1,640%
3,"4-[3-(2,5-Bis-trimethylgermanyl-phenyl)-3-oxo-propenyl]-benzoic acid (Ch55G)",1000%
4,CC(C)(C)c1cc(C(=O)Nc2ccc(C(=O)O)cc2)cc(C(C)(C)C)c1,5.6%
5,C[Si](C)(C)c1cc(C(=O)Nc2ccc(C(=O)O)cc2)cc([Si](C)(C)C)c1 [AMSILAROTENE],53%
